From patent US7579468B2, “Methods of modulating neurotrophin-mediated activity” (PainCeptor Pharma Corporation, priority 2005, dated 2009) come the findings set out here.

One assay relates to Mice. The experiment in a line: Writhing Test (acetic acid abdominal contraction test). The class given is in vivo, mouse. On the procedure: The acetic acid abdominal contraction test (Martinez et al., Pain 1999; 81: 179) was used to determine the efficacy of different compounds in a model of acute visceral chemical nociception. […] Compound or vehicle was administered (i.p. or s.c.) 15-45 minutes prior to the acetic acid injection. Each episode of writhing is characterized by a lengthwise stretching of the torso with a concomitant arching of the back.
Statistical analysis was performed using Prism™ 4.01 software package (GraphPad, San Diego, Calif., USA). The difference in response levels between treatment groups and control vehicle group was analyzed using an ANOVA followed by Bonferroni's method for post-hoc pair-wise comparisons. A p value <0.05 was considered to be significant.

In assay [1] the test system is T1, PC12 (TrkA & p75).
T1 construct: other: Concentration 25 μM; PC12 cells; other: Concentration 50 μM; other: PC12 cells; 125I-NGF ~0.11 nM; other: PC12 cells expressing TrkA and p75; individual experiment; fused on or other part: 125I label on NGF
As to the kind of experiment: 125I-NGF binding displacement in PC12 cells. To be noted: PC12 cells expressing TrkA and p75; individual experiment. On the set-up: species or system rat. On the procedure: (§1) All cells were incubated at 37° C. in 5% CO2. PC12 cells were maintained in RPMI-1640 medium supplemented with 10% fetal bovine serum (FBS). A875 human melanoma cells were maintained in DMEM with 10% FBS. HEK 293 cells were stably transfected with human TrkA plasmid (see below) and maintained in DMEM with 10% FBS and G418 (600 μg/mL) for selection.
(§2) NGF binding was evaluated using methods familiar to those who are skilled in the art. Briefly, cells expressing one or both NGF receptors (PC12: TrkA+p75; A875: p75 alone; HEK_TrkA: TrkA alone) were harvested by replacing the medium with calcium-magnesium free balanced salt (Grey's) solution and incubating at 37° C. for 15 min. For NGF binding, cells were resuspended at a concentration of 2×10^6 cells/mL in HEPES-Krebs-Ringer (HKR) buffer (10 mM HEPES; 125 mM NaCl; 4.8 mM KCl; 1.3 mM CaCl2; 1.2 mM MgSO4; 1.2 mM KH2PO4; 1 mg/ml BSA; 1 mg/ml glucose; pH 7.4) and exposed to ^125I-NGF (˜0.11 nM) in the presence or absence of varying concentrations of the compound. Non-specific binding was determined for reference by incubating ^125I-NGF with an excess of non-radioactive NGF in the absence of compound. Following a two-hour incubation period at 4° C., ^125I-NGF bound to the cells was quantified in a gamma radiation counter following separation from unbound NGF by filtration or centrifugation through glycerol (10% in HKR). Inhibition of binding was calculated as a percent of the specific binding (calculated as the differential between ^125I-NGF binding in the absence and presence of an excess of non-radioactive NGF without compound). Dose-response inhibition curves were typically generated with seven concentrations of a given compound, with three replicates for each concentration. For most compounds, multiple dose-response curves were generated.

The subject of assay [2] is T2, PC12 (TrkA & p75).
T2 construct: other: PC12, A875 an; fused on or other part: 125I label on NGF
As to the kind of experiment: 125I-NGF binding displacement in PC12 cells. On the set-up: species or system rat. Conditions: PC12, A875 and HEK_TrkA cells taken together. On the procedure: as §1, §2

In the next assay the test system is A875: p75 alone. As to the kind of experiment: 125I-NGF binding displacement in A875 cells. On the set-up: species or system human. To be noted: A875 cells expressing p75; individual experiment. On the procedure: as §1, §2
Assay [3] concerns HEK_TrkA: TrkA alone (human TrkA). The experiment in a line: 125I-NGF binding displacement in HEK_TrkA cells. To be noted: individual experiment. On the procedure: as §1
Expression of human TrkA in HEK cells was achieved by transfecting the cells with the TrkA expression vector using Lipofectamine (Invitrogen) reagent. HEK cells were plated in 100 mm Petri dishes at a concentration of 10^6 cells per dish. The next day, a solution of DNA diluted in 1 mL OptiMEM (Invitrogen) per dish was prepared and incubated for 15 min at room temperature. […]
NGF binding was evaluated using methods familiar to those who are skilled in the art. […] Non-specific binding was determined for reference by incubating ^125I-NGF with an excess of non-radioactive NGF in the absence of compound. Following a two-hour incubation period at 4° C., ^125I-NGF bound to the cells was quantified in a gamma radiation counter following separation from unbound NGF by filtration or centrifugation through glycerol (10% in HKR). Inhibition of binding was calculated as a percent of the specific binding (calculated as the differential between ^125I-NGF binding in the absence and presence of an excess of non-radioactive NGF without compound). […]

A further assay deals with Male Sprague-Dawley rats. As to the kind of experiment: Formalin Model - model of acute tonic pain. Conditions: 6.5, 12.5 and 25 mg/kg i.p., Phase II. In kind it is in vivo, rat. The procedure:
Male Sprague-Dawley rats were given a subcutaneous injection of 50 μl of 2.5% formalin into the plantar surface of one hindpaw using a 27 gauge syringe needle, and nociceptive responses were measured for the next 60 min. Compound or vehicle was administered (i.p. or s.c.) 15-45 minutes prior to the formalin injection. A nociceptive score was determined for each 5 min block by measuring the amount of time spent in each of four behavioral categories: 0, the injected hindpaw is indistinguishable from that of the contralateral paw; 1, the injected paw has little or no weight placed on it; 2, the injected paw is elevated and is not in contact with any surface; 3, the injected paw is licked, bitten, or shaken. A weighted nociceptive score, ranging from 0 to 3 was calculated by multiplying the time spent in each category by the category weight, summing these products, and dividing by the total time for each 5 min block of time (Coderre et al., Pain 1993; 54: 43). On the basis of the resulting response patterns, 2 phases of nociceptive behaviour were identified and scored: first phase (P1; 0-5 min) and second phase (P2; 11-40 min).
Statistical analysis was performed using Prism™ 4.01 software package (GraphPad, San Diego, Calif., USA). […]

SMILES strings stand for the structures. Entries after “also recorded” stand apart in the source; their conditions may differ.

`CC(=O)Nc1cc2c3c(cc(NC(C)=O)cc3c1)C(=O)N(CCCC(=O)O)C2=O` [Compound 11, 4-(5,8-Bis-acetylamino-1,3-dioxo-1H,3H-benzo[de]isoquinolin-2-yl)-butyric acid]: in the assay with Mice (15 mg/kg i.p., 30 minutes following acetic acid, vehicle 54±6), the “Number of abdominal contractions (writhing)” value is 28±4. Moreover, in the assay with Mice (Compound 63 100 mg/kg i.p., Compound 11 15 mg/kg i.p., 10-20 minutes before acetic acid), the “Antinociceptive effect in the Writhing Test” value is on record as “significant antinociceptive effects”. Moreover, the “NGF binding displacement, dose-response curve” value in the assay on PC12 (TrkA & p75) [1] was “effectively blocks NGF binding to cells expressing TrkA and p75”; in the assay on A875: p75 alone, “effectively blocks NGF binding to cells expressing p75”; in assay [3], “effectively blocks NGF binding to TrkA”. Besides, in the assay on PC12 (TrkA & p75) [2], the “Block of NGF binding to TrkA and/or p75 (summary of FIGS. 1B, 2A, 2B, 4A, 4B, 6A, 6B, 7A, 8A, 8B)” value is “effectively block NGF binding to TrkA and/or p75”. In the assay with Male Sprague-Dawley rats, the “Antinociceptive effect in the Formalin Test” value is reported as “significant dose-dependent antinociceptive effect; also recorded: significant antinociceptive effects”.
